Experimental data taken from PMC7377239, “Cardiovascular Effects of Polychlorinated Biphenyls and Their Major Metabolites” (Environmental Health Perspectives, 2020).
Read-outs that look alike come from different tables or passages of the source.

Legend:
[1] = system: HUVECs; experiment: High-content imaging cytotoxicity in HUVECs, 24 h; type: cell-based, human; details: Homo sapiens, HUVEC, 24 h, HUVECs; for viability at 0.01 µM / activity at 0.01 µM: concentration 0.01 µM; for viability at 0.01 µM / activity at 0.01 µM / viability at 0.1 µM / activity at 0.1 µM / viability at 1 µM / activity at 1 µM / viability at 10 µM / activity at 10 µM / viability at 100 µM / activity at 100 µM: 0.00 µM = 100.00; for viability at 0.1 µM / activity at 0.1 µM: concentration 0.10 µM; for viability at 1 µM / activity at 1 µM: concentration 1.00 µM; for viability at 10 µM / activity at 10 µM: concentration 10.00 µM; for viability at 100 µM / activity at 100 µM: concentration 100.00 µM; for minimal effective concentration: MAX 100.00
Procedure, shortened: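 HUVECs (passages 1–5) grown to monolayer over 3–5 d, then exposed 24 h at 37°C, 5% CO2; stained with Hoechst 33342, MitoTracker Orange and calcein AM and imaged at 10×. Readouts normalized to 0.5% DMSO vehicle, four-parameter logistic fit; POD at one-SD cutoff, 100μM assigned when no response.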

[2] = system: iCell endothelial cells (human iPSC-derived ECs); experiment: Tube formation (tubulogenesis) assay in iCell endothelial cells, 18 h; type: cell-based; details: Homo sapiens, Endothelial cell, iPSC-EC; for activity at 0.1 µM: 0.10 µM; for minimal effective concentration: 100.00 = highest concentration tested
Procedure, shortened: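 iCell ECs (passages 1–5) seeded 7,500 cells/well on reduced-growth-factor Geltrex in starvation medium, exposed overnight at 37°C to compounds in triplicate concentration–response (0.5% DMSO vehicle). Calcein AM staining, 4× imaging, angiogenesis image analysis; readouts normalized to vehicle, four-parameter logistic fit, POD at 1 SD of vehicle; 100 μM assigned NOAEL if no response.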

[3] = 24 hr, read-out: huvec.cyto.24hr
[4] = 24 hr, read-out: huvec.mito.24hr
[5] = 24 hr, read-out: huvec.mitoint.24hr
[6] = 24 hr, read-out: huvec.nma.24hr
[7] = 24 hrs, read-out: huvec.tc.24hrs
[8] = 0.00 µM = 100.00, read-out: endo.mtl.18hr
[9] = 0.00 µM = 100.00, read-out: endo.tlps.18hr
[10] = 0.00 µM = 100.00, read-out: endo.tta.18hr
[11] = 0.00 µM = 100.00, read-out: endo.ttl.18hr

Question: With Clc1ccc(Cl)c(-c2c(Cl)ccc(Cl)c2Cl)c1 [PCB95] as the compound, how does the viability at 0.01 µM [1, 3] read?
Answer: Its viability at 0.01 µM is 81%.

Question: And the activity at 0.01 µM [1, 4]?
Answer: Its activity at 0.01 µM is 79.4%.

Question: What about the activity at 0.01 µM [1, 5] of the same compound?
Answer: The activity at 0.01 µM was 106%.

Question: And the activity at 0.01 µM [1, 6]?
Answer: The activity at 0.01 µM was 97.4%.

Question: And the viability at 0.1 µM [1, 3]?
Answer: Its viability at 0.1 µM is 85.5%.

Question: What about the activity at 0.1 µM [1, 4] of the same compound?
Answer: The activity at 0.1 µM was 84.2%.

Question: What about the activity at 0.1 µM [1, 5] of the same compound?
Answer: The activity at 0.1 µM was 109%.

Question: And the activity at 0.1 µM [1, 6]?
Answer: The activity at 0.1 µM was 98.6%.

Question: And the viability at 1 µM [1, 3]?
Answer: Its viability at 1 µM is 94.8%.

Question: What about the activity at 1 µM [1, 4] of the same compound?
Answer: Its activity at 1 µM is 93.4%.

Question: And the activity at 1 µM [1, 5]?
Answer: The activity at 1 µM was 106%.

Question: What about the activity at 1 µM [1, 6] of the same compound?
Answer: The activity at 1 µM was 98.7%.

Question: What about the viability at 10 µM [1, 3] of the same compound?
Answer: Its viability at 10 µM is 70.3%.

Question: What about the activity at 10 µM [1, 4] of the same compound?
Answer: The activity at 10 µM was 63.8%.

Question: What about the activity at 10 µM [1, 5] of the same compound?
Answer: Its activity at 10 µM is 76.7%.

Question: What about the activity at 10 µM [1, 6] of the same compound?
Answer: The activity at 10 µM was 86.4%.

Question: And the viability at 100 µM [1, 3]?
Answer: Its viability at 100 µM is 64.5%.

Question: What about the activity at 100 µM [1, 4] of the same compound?
Answer: The activity at 100 µM was 50.7%.

Question: What about the activity at 100 µM [1, 5] of the same compound?
Answer: Its activity at 100 µM is 18.7%.

Question: What about the activity at 100 µM [1, 6] of the same compound?
Answer: The activity at 100 µM was 56.5%.

Question: And the minimal effective concentration ([1]; 24 hr, read-out: huvec.cyto.24hr POD)?
Answer: Its minimal effective concentration is 0.01 µM.

Question: And the minimal effective concentration ([1]; 24 hr, read-out: huvec.mito.24hr POD)?
Answer: The minimal effective concentration was 0.022 µM.

Question: What about the minimal effective concentration ([1]; 24 hr, read-out: huvec.mitoint.24hr POD) of the same compound?
Answer: Its minimal effective concentration is 7.41 µM.

Question: What about the minimal effective concentration ([1]; 24 hr, read-out: huvec.nma.24hr POD) of the same compound?
Answer: The minimal effective concentration was 1.93 µM.

Question: And the viability at 0.01 µM [1, 7]?
Answer: The viability at 0.01 µM was 81%.

Question: What about the viability at 0.1 µM [1, 7] of the same compound?
Answer: Its viability at 0.1 µM is 85.5%.

Question: And the viability at 1 µM [1, 7]?
Answer: Its viability at 1 µM is 94.8%.

Question: And the viability at 10 µM [1, 7]?
Answer: The viability at 10 µM was 70.3%.

Question: And the viability at 100 µM [1, 7]?
Answer: Its viability at 100 µM is 64.5%.

Question: What about the minimal effective concentration ([1]; 24 hrs, read-out: huvec.tc.24hrs POD) of the same compound?
Answer: Its minimal effective concentration is 0.01 µM.

Question: What about the activity at 0.01 µM [2, 8] of the same compound?
Answer: The activity at 0.01 µM was 111%.

Question: And the activity at 0.01 µM [2, 9]?
Answer: The activity at 0.01 µM was 84.5%.

Question: And the activity at 0.01 µM [2, 10]?
Answer: The activity at 0.01 µM was 111%.

Question: What about the activity at 0.01 µM [2, 11] of the same compound?
Answer: The activity at 0.01 µM was 116%.

Question: What about the activity at 0.1 µM [2, 8] of the same compound?
Answer: The activity at 0.1 µM was 103%.

Question: And the activity at 0.1 µM [2, 9]?
Answer: The activity at 0.1 µM was 85.8%.

Question: And the activity at 0.1 µM [2, 10]?
Answer: Its activity at 0.1 µM is 99%.

Question: And the activity at 0.1 µM [2, 11]?
Answer: Its activity at 0.1 µM is 106%.

Question: What about the activity at 1 µM [2, 8] of the same compound?
Answer: The activity at 1 µM was 108%.

Question: What about the activity at 1 µM [2, 9] of the same compound?
Answer: Its activity at 1 µM is 115%.

Question: And the activity at 1 µM [2, 10]?
Answer: The activity at 1 µM was 97.2%.

Question: And the activity at 1 µM [2, 11]?
Answer: Its activity at 1 µM is 104%.

Question: And the activity at 10 µM [2, 8]?
Answer: The activity at 10 µM was 109%.

Question: And the activity at 10 µM [2, 9]?
Answer: The activity at 10 µM was 119%.

Question: What about the activity at 10 µM [2, 10] of the same compound?
Answer: Its activity at 10 µM is 113%.

Question: And the activity at 10 µM [2, 11]?
Answer: Its activity at 10 µM is 123%.

Question: And the activity at 100 µM [2, 8]?
Answer: Its activity at 100 µM is 47%.

Question: What about the activity at 100 µM [2, 9] of the same compound?
Answer: The activity at 100 µM was 16%.

Question: And the activity at 100 µM [2, 10]?
Answer: Its activity at 100 µM is 8.76%.

Question: And the activity at 100 µM [2, 11]?
Answer: The activity at 100 µM was 11%.

Question: And the minimal effective concentration ([2]; read-out: endo.mtl.18hr POD)?
Answer: Its minimal effective concentration is 48.6 µM.

Question: What about the minimal effective concentration ([2]; read-out: endo.tlps.18hr POD) of the same compound?
Answer: The minimal effective concentration was 53.9 µM.

Question: What about the minimal effective concentration ([2]; read-out: endo.tta.18hr POD) of the same compound?
Answer: The minimal effective concentration was 48.7 µM.

Question: What about the minimal effective concentration ([2]; read-out: endo.ttl.18hr POD) of the same compound?
Answer: The minimal effective concentration was 55.7 µM.
